Molecular target: T1, AsPC-1 HiBiT-KRASG12D (Homo sapiens, UniProt P01116, G12D)
T1 construct: insert the HiBiT tag onto the N-terminus of one or more of the endogenous KRAS alleles; endogenous in cells; host or cells: AsPC-1 (ATCC CRL-1682), CRISPR-Cas9 knock-in clone, one tagged allele
Test: HiBiT degradation assay (G12D), AsPC-1 HiBiT-KRASG12D cells
Type: cell-based
Conditions: 24 hours treatment; for Dmax: ASPC1, AsPC-1 HiBiT-KRASG12D cells, maximum degradation observed; for DC50: AsPC-1 HiBiT-KRASG12D cells, HiBiT luminescence
Summary of the method: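 Endogenous KRASG12D levels were measured via an N-terminal HiBiT tag knocked into AsPC-1 cells. Cells received compound titrations for 24 hours, and HiBiT luminescence was detected after a 45-minute lytic reagent incubation at room temperature.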

T1 sequence (P01116 1-188 isoform P01116-2 G12D): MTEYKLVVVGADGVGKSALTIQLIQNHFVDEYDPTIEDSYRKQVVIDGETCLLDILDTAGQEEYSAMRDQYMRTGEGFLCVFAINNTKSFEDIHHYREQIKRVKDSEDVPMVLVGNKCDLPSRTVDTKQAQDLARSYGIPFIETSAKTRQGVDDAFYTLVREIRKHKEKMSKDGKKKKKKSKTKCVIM

SMILES | Dmax [%] | DC50 [nM]
CCc1cccc2cc(O)cc(-c3ncc4c(N5CC6CCC(C5)N6)nc(OC[C@]56CCCN5[C@H](COC(=O)N5CC7(C5)CN(c5cc([C@@H](C(=O)N8C[C@H](O)C[C@H]8C(=O)N[C@@H](C)c8ccc(-c9scnc9C)cc8)C(C)C)on5)C7)CC6)nc4c3F)c12 [Compound 144, [(3S,7aR)-7a-{[(4-{3,8-diazabicyclo[3.2.1]octan-3-yl}-7-(8-ethyl-3-hydroxynaphthalen-1-yl)-8-fluoropyrido[4,3-d]pyrimidin-2-yl)oxy]methyl}-hexahydro-1H-pyrrolizin-3-yl]methyl 6-{5-[(2S)-1-[(2S,4R)-4-hydroxy-2-{[(1S)-1-[4-(4-methyl-1,3-thiazol-5-yl)phenyl]ethyl]carbamoyl}pyrrolidin-1-yl]-3-methyl-1-oxobutan-2-yl]-1,2-oxazol-3-yl}-2,6-diazaspiro[3.3]heptane-2-carboxylate] | 20 to 60 | 600 to 1000
CCc1cccc2cc(O)cc(-c3ncc4c(N5CC6CCC(C5)N6)nc(OCCN5CCC(C(C)(C)N6CCN(c7cc([C@H](C(=O)N8C[C@H](O)C[C@H]8C(=O)N[C@@H](C)c8ccc(-c9scnc9C)cc8)C(C)C)on7)CC6)CC5)nc4c3F)c12 (single isomer, unassigned) [Compound 251, (2S,4R)-1-[(2R*)-2-(3-{4-[2-(1-{2-[(4-{3,8-diazabicyclo[3.2.1]octan-3-yl}-7-(8-ethyl-3-hydroxynaphthalen-1-yl)-8-fluoropyrido[4,3-d]pyrimidin-2-yl)oxy]ethyl}piperidin-4-yl)propan-2-yl]piperazin-1-yl}-1,2-oxazol-5-yl)-3-methylbutanoyl]-4-hydroxy-N-[(1S)-1-[4-(4-methyl-1,3-thiazol-5-yl)phenyl]ethyl] pyrrolidine-2-carboxamide] | 80 to 100 | < 600
C#Cc1c(F)ccc2cc(O)cc(-c3ncc4c(N5CC6CCC(C5)N6)nc(OCCN5CCC(CC6CN(c7cc([C@@H](C(=O)N8C[C@H](O)C[C@H]8C(=O)N[C@@H](C)c8ccc(-c9ccnn9C)cc8)C(C)C)on7)C6)CC5)nc4c3F)c12 [Compound 160, (2S,4R)-1-[(2S)-2-(3-{3-[(1-{2-[(4-{3,8-diazabicyclo[3.2.1]octan-3-yl}-7-(8-ethynyl-7-fluoro-3-hydroxynaphthalen-1-yl)-8-fluoropyrido[4,3-d]pyrimidin-2-yl)oxy]ethyl}piperidin-4-yl)methyl]azetidin-1-yl}-1,2-oxazol-5-yl)-3-methylbutanoyl]-4-hydroxy-N-[(1S)-1-[4-(1-methyl-1H-pyrazol-5-yl)phenyl]ethyl]pyrrolidine-2-carboxamide] | 20 to 60 | > 3000
CCc1cccc2cc(O)cc(-c3ncc4c(N5CC6CCC(C5)N6)nc(OC[C@]56CCCN5[C@H](CN5CCC(COc7cc([C@H](C(=O)N8C[C@H](O)C[C@H]8C(=O)N[C@@H](C)c8ccc(-c9scnc9C)cc8)C(C)C)on7)CC5)CC6)nc4c3F)c12 [Compound 111, (2S,4R)-1-[(2R)-2-{3-[(1-{[(3S,7aR)-7a-{[(4-{3,8-diazabicyclo[3.2.1]octan-3-yl}-7-(8-ethyl-3-hydroxynaphthalen-1-yl)-8-fluoropyrido[4,3-d]pyrimidin-2-yl)oxy]methyl}-hexahydro-1H-pyrrolizin-3-yl]methyl}piperidin-4-yl)methoxy]-1,2-oxazol-5-yl}-3-methylbutanoyl]-4-hydroxy-N-[(1S)-1-[4-(4-methyl-1,3-thiazol-5-yl)phenyl]ethyl]pyrrolidine-2-carboxamide] | 80 to 100 | < 600
C#Cc1c(F)ccc2cc(O)cc(-c3ncc4c(N5CC6CCC(C5)N6)nc(OCCN5CCC(C6CCN(c7cc([C@@H](C(=O)N8C[C@H](O)C[C@H]8C(=O)N[C@@H](C)c8ccc(-c9scnc9C)cc8)C(C)C)on7)CC6)CC5)nc4c3F)c12 [Compound 177, (2S,4R)-1-[(2S)-2-[3-(1′-{2-[(4-{3,8-diazabicyclo[3.2.1]octan-3-yl}-7-(8-ethynyl-7-fluoro-3-hydroxynaphthalen-1-yl)-8-fluoropyrido[4,3-d]pyrimidin-2-yl)oxy]ethyl}-[4,4′-bipiperidin]-1-yl)-1,2-oxazol-5-yl]-3-methylbutanoyl]-4-hydroxy-N-[(1S)-1-[4-(4-methyl-1,3-thiazol-5-yl)phenyl]ethyl]pyrrolidine-2-carboxamide] | 60 to 80 | < 600
CCc1cccc2cccc(-c3ncc4c(N5CC6CCC(C5)N6)nc(OC[C@@]56CCCN5[C@H](COc5cc([C@@H](C(=O)N7C[C@H](O)C[C@H]7C(=O)N[C@@H](C)c7ccc(-c8scnc8C)cc7)C(C)C)on5)CC6)nc4c3F)c12 [Compound 55, (2S,4R)-1-[(2S)-2-(3-{[(3S,7aS)-7a-{[(4-{3,8-diazabicyclo[3.2.1]octan-3-yl}-7-(8-ethylnaphthalen-1-yl)-8-fluoropyrido[4,3-d]pyrimidin-2-yl)oxy]methyl}-hexahydro-1H-pyrrolizin-3-yl]methoxy}-1,2-oxazol-5-yl)-3-methylbutanoyl]-4-hydroxy-N-[(1S)-1-[4-(4-methyl-1,3-thiazol-5-yl)phenyl]ethyl]pyrrolidine-2-carboxamide] | – | > 3000
CCc1cccc2cc(O)cc(-c3ncc4c(N5CC6CCC(C5)N6)nc(OCCN5CCN(CC6CN(c7cc([C@@H](C(=O)N8C[C@H](O)C[C@H]8C(=O)N[C@@H](C)c8ccc(-c9scnc9C)cc8)C(C)C)on7)C6)CC5)nc4c3F)c12 [Compound 221, (2S,4R)-1-[(2S)-2-(3-{3-[(4-{2-[(4-{3,8-diazabicyclo[3.2.1]octan-3-yl}-7-(8-ethyl-3-hydroxynaphthalen-1-yl)-8-fluoropyrido[4,3-d]pyrimidin-2-yl)oxy]ethyl}piperazin-1-yl)methyl]azetidin-1-yl}-1,2-oxazol-5-yl)-3-methylbutanoyl]-4-hydroxy-N-[(1S)-1-[4-(4-methyl-1,3-thiazol-5-yl)phenyl]ethyl]pyrrolidine-2-carboxamide] | – | > 3000
CCc1cccc2cc(O)cc(-c3ncc4c(N5CC6CCC(C5)N6)nc(OCCN5CCC(F)(CN6CCN(c7cc([C@H](C(=O)N8C[C@H](O)C[C@H]8C(=O)N[C@@H](C)c8ccc(-c9ccnn9C)cc8)C(C)C)on7)CC6)CC5)nc4c3F)c12 [Compound 199, (2S,4R)-1-[(2R)-2-(3-{4-[(1-{2-[(4-{3,8-diazabicyclo[3.2.1]octan-3-yl}-7-(8-ethyl-3-hydroxynaphthalen-1-yl)-8-fluoropyrido[4,3-d]pyrimidin-2-yl)oxy]ethyl}-4-fluoropiperidin-4-yl)methyl]piperazin-1-yl}-1,2-oxazol-5-yl)-3-methylbutanoyl]-4-hydroxy-N-[(1S)-1-[4-(1-methyl-1H-pyrazol-5-yl)phenyl]ethyl] pyrrolidine-2-carboxamide] | 80 to 100 | < 600
CCc1cccc2cc(O)cc(-c3ncc4c(N5CC6CCC(C5)N6)nc(OC[C@@]56CCCN5[C@H](COC(=O)N5CC(COc7cc([C@H](C(=O)N8C[C@H](O)C[C@H]8C(=O)N[C@@H](C)c8ccc(-c9scnc9C)cc8)C(C)C)on7)C5)CC6)nc4c3F)c12 [Compound 114, [(3S,7aS)-7a-{[(4-{3,8-diazabicyclo[3.2.1]octan-3-yl}-7-(8-ethyl-3-hydroxynaphthalen-1-yl)-8-fluoropyrido[4,3-d]pyrimidin-2-yl)oxy]methyl}-hexahydro-1H-pyrrolizin-3-yl]methyl 3-[({5-[(2R)-1-[(2S,4R)-4-hydroxy-2-{[(1S)-1-[4-(4-methyl-1,3-thiazol-5-yl)phenyl]ethyl]carbamoyl}pyrrolidin-1-yl]-3-methyl-1-oxobutan-2-yl]-1,2-oxazol-3-yl}oxy)methyl]azetidine-1-carboxylate] | 80 to 100 | < 600
CCc1cccc2cc(O)cc(-c3ncc4c(N5CC6CCC(C5)N6)nc(OC[C@@]56CCCN5[C@H](COC(=O)NCc5cc([C@H](C(=O)N7C[C@H](O)C[C@H]7C(=O)N[C@@H](C)c7ccc(-c8scnc8C)cc7)C(C)C)on5)CC6)nc4c3F)c12 [Compound 104, [(3S,7aS)-7a-{[(4-{3,8-diazabicyclo[3.2.1]octan-3-yl}-7-(8-ethyl-3-hydroxynaphthalen-1-yl)-8-fluoropyrido[4,3-d]pyrimidin-2-yl)oxy]methyl}-hexahydro-1H-pyrrolizin-3-yl]methyl N-({5-[(2R)-1-[(2S,4R)-4-hydroxy-2-{[(1S)-1-[4-(4-methyl-1,3-thiazol-5-yl)phenyl]ethyl]carbamoyl}pyrrolidin-1-yl]-3-methyl-1-oxobutan-2-yl]-1,2-oxazol-3-yl}methyl) carbamate] | 80 to 100 | < 600
CCc1cccc2cc(O)cc(-c3ncc4c(N5CC6CCC(C5)N6)nc(OC[C@@H]5CC[C@@H](COC(=O)N6CCN(c7cc([C@H](C(=O)N8C[C@H](O)C[C@H]8C(=O)N[C@@H](C)c8ccc(-c9scnc9C)cc8)C(C)C)on7)[C@H](C)C6)N5C)nc4c3F)c12 [Compound 301, [(2S,5S)-5-[[4-(3,8-diazabicyclo[3.2.1]octan-3-yl)-7-(8-ethyl-3-hydroxy-1-naphthyl)-8-fluoro-pyrido[4,3-d]pyrimidin-2-yl]oxymethyl]-1-methyl-pyrrolidin-2-yl]methyl (3R)-4-[5-[(1R)-1-[(2S,4R)-4-hydroxy-2-[[(1S)-1-[4-(4-methylthiazol-5-yl)phenyl]ethyl]carbamoyl]pyrrolidine-1-carbonyl]-2-methyl-propyl]isoxazol-3-yl]-3-methyl-piperazine-1-carboxylate] | 80 to 100 | < 600
Cc1ncsc1-c1ccc([C@H](C)NC(=O)[C@@H]2C[C@@H](O)CN2C(=O)[C@@H](c2cc(OC3CN(C(=O)OC[C@@H]4CC[C@@]5(COc6nc(N7CC8CCC(C7)N8)c7cnc(-c8cc(O)cc(Cl)c8C8CC8)c(F)c7n6)CCCN45)C3)no2)C(C)C)cc1 [Compound 306] | 80 to 100 | < 600

From patent US20250206732A1, “COMPOUNDS AND METHODS FOR THE TARGETED DEGRADATION OF KRAS” (Arvinas Operations, Inc., priority 2022, published 2025)
